The values that follow are results of earlier work, collected in patent US11083704B2, “Method of administering nitroxyl donating compounds” (Cardioxyl Pharmaceuticals, Inc., priority 2017, dated 2021).

The conditions of series [1]: preclinical models and Phase I/IIa studies.
For series [2] the following is noted: healthy patients and patients hospitalized with advanced heart failure.

Turning to `Cc1ccc(S(=O)(=O)NO)o1` [N-hydroxy-5-methylfuran-2-sulfonamide], in series [1], the inotropy entry is listed as “increased inotropy”, the lusitropy entry is listed as “improved lusitropy” and the vasodilation result is on record as “peripheral vasodilation”. Also, the “safety and tolerability of infusions” value in series [2] was “safe and well-tolerated”.
